Measured values reported in paper PMC9894920, “Development of an improved and specific inhibitor of NADPH oxidase 2 to treat traumatic brain injury” (Redox Biology, 2023).
Like-named read-outs stand apart in the source and are kept apart here.

How the values were obtained:
NOX2 [1] = target: T1, NOX2 (Homo sapiens, UniProt P04839); assay: NOX2 activity in primary human granulocytes (PMN), luminol chemiluminescence; type: cell-based; set-up: When tested against NOX2 in primary human neutrophils; endogenous in cells; host or cells: primary human granulocytes (PMN) from donor blood
T1 sequence (P04839 2-570 limits assumed): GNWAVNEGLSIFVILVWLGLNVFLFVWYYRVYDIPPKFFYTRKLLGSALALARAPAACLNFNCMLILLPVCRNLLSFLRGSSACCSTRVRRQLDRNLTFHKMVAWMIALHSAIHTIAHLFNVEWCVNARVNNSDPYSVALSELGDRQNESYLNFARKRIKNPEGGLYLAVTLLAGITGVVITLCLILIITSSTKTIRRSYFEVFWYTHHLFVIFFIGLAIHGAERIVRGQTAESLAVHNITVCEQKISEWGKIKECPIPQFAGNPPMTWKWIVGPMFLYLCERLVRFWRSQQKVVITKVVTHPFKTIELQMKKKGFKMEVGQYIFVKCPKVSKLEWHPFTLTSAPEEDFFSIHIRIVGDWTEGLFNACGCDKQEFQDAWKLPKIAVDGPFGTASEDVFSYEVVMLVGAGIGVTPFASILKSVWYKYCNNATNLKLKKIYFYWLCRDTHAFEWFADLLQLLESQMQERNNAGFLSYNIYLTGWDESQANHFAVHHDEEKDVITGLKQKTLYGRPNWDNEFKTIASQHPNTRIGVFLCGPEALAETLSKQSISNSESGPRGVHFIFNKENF
T1 sequence (P13498 2-195 partner limits assumed): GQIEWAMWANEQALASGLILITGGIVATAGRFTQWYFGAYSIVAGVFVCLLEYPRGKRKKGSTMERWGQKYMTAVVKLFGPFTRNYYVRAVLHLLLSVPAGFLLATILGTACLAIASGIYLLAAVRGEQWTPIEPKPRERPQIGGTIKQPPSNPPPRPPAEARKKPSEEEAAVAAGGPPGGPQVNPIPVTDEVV
Protocol: (§1) Human blood was obtained after informed consent by the Department of Transfusion Medicine (NIH Clinical Center) and provided as de-identified specimens. Human granulocytes were isolated using Percoll density fractionation as described and NOX2 activity was assessed in white polypropylene flat bottom 96 well plates following 15 min of preincubation at 37 °C with compounds or vehicle controls using 50 μM luminol as a chemiluminescence enhancer in an assay volume of 100 μl RPMI1640 with 1.1 × 10^5 cells/well in Varioskan Lux luminometer for 30 cycles of 1 s per well (approximately 1 h).

NOX2 [2] = target: T2, NOX2 (Mus musculus, UniProt Q61093); assay: NOX2 activity in primary mouse neutrophils enriched from bone marrow; type: cell-based; conditions: SD, n = 8 mice
T2 construct: relative potencies in primary mouse neutrophils enriched from bone marrow; endogenous in cells; host or cells: primary mouse bone-marrow granulocytes
T2 sequence (Q61093 2-570 limits assumed): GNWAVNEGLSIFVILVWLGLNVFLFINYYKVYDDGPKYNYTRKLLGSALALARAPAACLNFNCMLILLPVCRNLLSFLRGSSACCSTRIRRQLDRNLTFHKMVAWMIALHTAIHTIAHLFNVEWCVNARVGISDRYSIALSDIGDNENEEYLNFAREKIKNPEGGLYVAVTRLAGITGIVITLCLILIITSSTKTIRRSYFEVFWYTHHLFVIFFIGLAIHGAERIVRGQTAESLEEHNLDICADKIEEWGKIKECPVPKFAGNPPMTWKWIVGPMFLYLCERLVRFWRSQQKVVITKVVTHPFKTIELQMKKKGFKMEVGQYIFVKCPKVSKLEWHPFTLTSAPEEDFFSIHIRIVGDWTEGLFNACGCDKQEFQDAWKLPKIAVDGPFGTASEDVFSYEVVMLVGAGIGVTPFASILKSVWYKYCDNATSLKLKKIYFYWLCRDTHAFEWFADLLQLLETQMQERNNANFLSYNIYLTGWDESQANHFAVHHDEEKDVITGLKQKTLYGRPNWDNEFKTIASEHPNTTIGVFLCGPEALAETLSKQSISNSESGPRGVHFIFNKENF
T2 sequence (Q61462 2-192 partner limits assumed): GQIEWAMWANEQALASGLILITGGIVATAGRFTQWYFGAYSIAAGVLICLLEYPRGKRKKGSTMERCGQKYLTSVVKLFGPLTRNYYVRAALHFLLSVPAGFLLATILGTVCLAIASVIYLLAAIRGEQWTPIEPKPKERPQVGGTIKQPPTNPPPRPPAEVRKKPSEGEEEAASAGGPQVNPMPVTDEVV
Protocol: as §1
Mouse granulocytes were isolated from bone marrow essentially as described except bones were not sterilized in ethanol and marrow was not flushed through a 100 μm strainer. Furthermore, RPMI1640 was supplemented with 10% FBS, 2 mM EDTA, and 25 mM HEPES buffer and penicillin/streptomycin was omitted. Polymorphonuclear leukocytes (PMN) concentration and purity (>90% granulocytes) were assessed microscopically using 3% acetic acid and a hemacytometer. NOX2 activity was assessed as described above with human granulocytes.

NOX2 [3] = target: T1, NOX2; assay: Expi293 whole cell assay, NOX2 overexpression; type: cell-based; conditions: Expi293 cells expressing NOX2
Protocol: Given concerns about previous assays for specific NOX family members [45] we here report the first use of the Expi293 Expression System (Thermo Scientific) to overexpress NOX1, 2, 3, 4, and 5 in excess of any endogenous NOX proteins present in these cells. Transfections were performed following the manufacturer's instructions using the plasmids for each NOX as described in Supplemental Table 2 except that the enhancer solution provided with the Expi293 system was not used because it promoted enzyme activation.
After the times indicated in Supplemental Table 2, cells were washed and 50,000 added per well of a white 96-well plate (Greiner) along with 50 μM Luminol and 2.5 U horseradish peroxidase/mL in a volume of 90 μl for NOX1, NOX2, and NOX5. Inhibitors or vehicle controls were added and cells were incubated for 20 min at 37 °C prior to activation with the indicated stimuli. […] Chemiluminescence was measured every 2 min for 1 s per well at 37 °C in a Varioscan Multimode reader. AUC data were analyzed using GraphPad Prism using non-linear regression analysis after expressing relative to control alone (maximum ROS production).

[4] = Rat liver microsomal stability; type: in vitro ADME; conditions: SD, rat, liver microsomes, read-out: Rat_SD/Microsomes t1/2 (m)
Protocol: The rat liver microsomal stability, parallel artificial membrane permeability assay (PAMPA), and aqueous kinetic solubility assay in phosphate-buffered saline (PBS) buffer were performed as described in the indicated references.

Cn1ccc(S(=O)(=O)Nc2ccnc3c2c(-c2ccc4ccn(C)c4c2)cn3C2CC2)n1 [NCATS-SM7270, N-(1-cyclopropyl-3-(1-methyl-1H-indol-6-yl)-1H-pyrrolo [2,3-b]pyridin-4-yl)-1-methyl-1H-pyrazole-3-sulfonamide]
IC50 (NOX2 [1]; mean of 6 donors ± S.D., read-out: IC50 against NOX2 in primary human neutrophils): 4.09 ± 1 µM | IC50 (NOX2 [1]; mean ± SD, n in cell, read-out: NOX-2 IC50 from PMN): 2.15 µM | IC50 (NOX2 [2]): 4.28 ± 1.05 µM | improvement in potency toward NOX2 compared with GSK2795039 (NOX2 [3]): 2 fold | half-life [4]: 3.7 min
